Assay results published in paper PMC3925085, “Subditine, a New Monoterpenoid Indole Alkaloid from Bark of Nauclea subdita (Korth.) Steud. Induces Apoptosis in Human Prostate Cancer Cells” (PLoS ONE, 2014).

Experiments:
caspase-8 in PC-3 cells = assay: Caspase-Glo 8 bioluminescent assay, PC-3; format: cell-based, human; conditions: PC-3, 12.5 µM, throughout 30 hours
Experimental: (§1) A time-dependent study of caspase-3/7, -8, and -9 activities was performed in triplicates using assay kits Caspase-Glo 3/7, 8, and 9 (Promega Corp.,Madison,WI, USA) on white 96-well microplate as described previously. A total of 10,000 cells per well was seeded and treated with […] of subditine (1) for 6, 12, 18, 24, and 30 hours. Then, 100 µL of the caspase-Glo reagent was added, incubated at room temperature for 30 minutes and measured using Tecan Infinite 200 Pro (Tecan, Mannedorf, Swizerland) microplate reader.

PC-3 cells = assay: Cellomics multiparameter cytotoxicity assay, PC-3; format: cell-based, human
Experimental: Cytotoxicity 3 kit (Thermo Scientific) was used as described previously. Briefly, 24 hours after subditine (1) treatment, MMP dye and the cell permeability dye were added to live cells and incubated for 30 minutes at 37°C. Cells were fixed, permeabilized, blocked with 1x blocking buffer before probing with primary cytochrome c and secondary DyLight 649 conjugated goat anti-mouse IgG antibodies for 1 hour each. Hoechst 33342 was added into the staining solution. Plates were then analyzed using the ArrayScan high content screening (HCS) system (Cellomics, PA, USA). Data were captured, extracted and analyzed with ArrayScan II Data Acquisition and Data Viewer version 3.0.

[1] = tested on: p53 expression in LNCaP cells; assay: Western blotting, p53 in LNCaP; format: cell-based, human; conditions: LNCaP (p53-wild-type), 24 h
Experimental: (§2) To determine protein expression, 1×10^6 cells/mL were seeded and treated with subditine (1) or paclitaxel for 24 h. Whole cell extracts were prepared as previously described. Briefly, cells were collected, lysed and resolved on 10% SDS-polyacrylamide gels. After electrophoresis, the proteins were transferred to PVDF membranes (Millipore), blocked with 5% nonfat dry milk in PBS-T (0.05% Tween 20) for 1 hour at room temperature. Membranes were probed with primary rabbit anti-Bcl-2, Bcl-xL or p53 antibodies followed by horseradish peroxidase (HRP)-conjugated secondary anti-rabbit antibody (Cell Signaling Technology Inc., CA, USA). Membranes were stripped and reprobed with mouse anti-β-actin antibody as loading control (Santa Cruz Biotechnology Inc.). Protein-antibody complexes were detected with Amersham ECL prime Western blotting detection reagent (GE Healthcare, USA).

caspase-9 in PC-3 cells = assay: Caspase-Glo 9 bioluminescent assay, PC-3; format: cell-based, human
Experimental: as §1

[2] = tested on: Bcl-xL expression in PC-3 cells; assay: Western blotting, Bcl-xL in PC-3; format: cell-based, human; conditions: 24 h
Experimental: as §2

caspase-9 in LNCaP cells = assay: Caspase-Glo 9 bioluminescent assay, LNCaP; format: cell-based, human
Experimental: as §1

[3] = tested on: RWPE-1 human normal prostate epithelial cells; assay: MTT cell proliferation assay, RWPE-1; format: cell-based; conditions: 24 hours, RWPE-1 normal cells, mean ± S.D.
Experimental: (§3) Human prostate normal cell line (RWPE-1) and human prostate cancer cell lines; LNCaP and PC-3, were purchased from the American Type Culture Collection (ATCC, Manassas, Virginia, USA). LNCaP and PC-3 cells were grown in Roswell Park Memorial Institute medium (RPMI) supplemented with 10% heat-inactivated fetal bovine serum (FBS, Sigma-Aldrich, St. Louis, MO), 1% penicillin and streptomycin. RWPE-1 cells were maintained in Keratinocyte Serum Free Medium (K-SFM, ATCC) supplemented with bovine pituitary extract (BPE) and human recombinant epidermal growth factor (EGF). Mediums were supplemented with 10% heat-inactivated fetal calf serum (Sigma.), 100 U/ml penicillin and […] streptomycin (Flowlab, Sydney, Australia). All cells were maintained in a humidified atmosphere of 5% CO2 in air at 37°C incubator.
(§4) The anti-proliferative activity was evaluated by performing MTT assays as previously described with minor modifications. Briefly, cells were seeded 24 hours prior to treatment in a 96-well plate at 5×10^4 cells/well in order to obtain 70% to 80% confluent cultures. The compounds were dissolved in DMSO (Sigma Chemical Co., St. Louis, Missouri, USA) followed by a 2×serial dilution for 10 points ranged from 0.825 µM to 100 µM. The 96-well plate was incubated for 24 hours at 37°C in a humidified atmosphere with 5% CO2. At the end of incubation, 50 µl of MTT solution (2 mg/ml; Sigma) was added to each well. The plate was then incubated for 4 hours. All medium was removed and the purple formazan crystal formed at the bottom of the wells was dissolved with 200 µl DMSO for 20 minutes. The absorbance at 570 nm was read on a spectrophotometric plate reader (Hidex). The proportion of surviving cells was calculated as: […]
(§5) Dose-response curves were constructed to obtain the IC50 values. Experimental data were derived from 3 independent experiments. The selectivity index was obtained by mean IC50 RWPE-1/mean IC50 of LNCaP or PC-3.

[4] = tested on: LNCaP human prostate cancer cells; assay: MTT cell proliferation assay, LNCaP; format: cell-based
Experimental: as §3, §4, §5

[5] = tested on: intracellular ROS in PC-3 cells; assay: ROS assay (DHE dye, Cellomics HCS), PC-3; format: cell-based, human; conditions: PC-3, 12.5, 25, 50 µM, 24 h
Experimental: The production of intracellular ROS was detected as described previously. The DHE dye reagent is converted to fluorescent ethidium and intercalates into DNA in response intracellular ROS. Briefly, 10 mM DHE stock solution (in methanol) was diluted 500-fold in HBSS without serum or other additives to yield a 20 µM working solution. After exposure to subditine (1), the cells in the 96-well black plate was washed twice with HBSS and then incubated in 100 µL working solution of DHE at 37°C for 30 minutes. Fluorescence of DCF in each cell was captured, extracted and analyzed with ArrayScan II Data Acquisition and Data Viewer version 3.0 (Cellomics).

[6] = PC-3, 24 h, compared to control

IC50 ([4]; Homo sapiens, MTT, 24 hours, LNCaP, mean ± S.D.): 12.2 ± 0.19 µM
SMILES: Cc1ncc2c(=O)n3c(cc2c1C=O)-c1[nH]c2ccccc2c1CC3 [Subditine, subditine]
caspase 8 activity (caspase-8 in PC-3 cells): No significant fold-change | cytochrome c release (cytosolic staining) (PC-3 cells; [6]): increased fluorescent-staining in the cytosol | membrane permeability (PC-3 cells; [6]): higher membrane permeability | mitochondrial membrane potential (MMP) fluorescence intensity (PC-3 cells; PC-3, 24 hours): dose-dependent reduction | p53 expression [1]: up-regulate | caspase-9 activity (caspase-9 in PC-3 cells; PC-3, after 12 and 24 hours exposure, 12.25 µM): significant increase | time of highest caspase-9 activity (caspase-9 in PC-3 cells; PC-3, time points 6-30 hours): 24 h | Bcl-xL protein expression ([2]; PC-3, 12.5 µM, compared to control): no significant change | Bcl-xL protein expression ([2]; PC-3, 25 and 50 µM): drastically down-regulated | caspase-9 activity (caspase-9 in LNCaP cells; after 12 and 24 hours exposure, 12.25 µM): significant increase | time of highest caspase-9 activity (caspase-9 in LNCaP cells; time points 6-30 hours): 24 h | IC50 [3]: 30.48 ± 0.08 µM | folds more potent against LNCaP than normal prostate cells RWPE-1 ([4]; LNCaP vs RWPE-1): 2.5 folds | selectivity index (SI) LNCaP ([4]; mean IC50 RWPE-1/mean IC50 of LNCaP): 2.49 | ROS production (DCF/DHE fluorescence level) [5]: significantly increased in a dose-dependent manner
